# Laboratory results taken from the supplement of paper PMC8633005.
# Columns and labels:
# Experiment in all cases: drug sensitivity score (DSS) (DSS (unitless, 0-50 scale)); higher = more sensitive (stronger viability inhibition); extreme values may be limits of the assay
# Conditions in all cases: 72 h; culture: 2D
# [1] = test system: SK-MEL-2
# Method in brief: (§1)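 Patient-derived melanoma cultures and melanoma cell lines were grown in 2D in 384-well plates with a 527-compound oncology library at five concentrations spanning a 10,000-fold range, with 1000–1500 cells per well for the cultures. CellTiter-Glo luminescence gave viability after 72 h at 37 °C. The drug sensitivity score is a modified area-under-curve measure derived from dose-response curves fitted in the in-house Breeze software.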
# [2] = test system: WM165
# Method in brief: as §1
# [3] = test system: FM-MEL-3
# Method in brief: as §1
# [4] = test system: SK-MEL-28
# Method in brief: as §1
# [5] = test system: Bowes
# Method in brief: as §1
# [6] = test system: FM-MEL-2
# Method in brief: as §1
# [7] = test system: FM-MEL-6
# Method in brief: as §1
# [8] = test system: WM852
# Method in brief: as §1
structure (smiles),measurement,setting,value
CCOc1cc2ncc(C#N)c(Nc3ccc(OCc4ccccn4)c(Cl)c3)c2cc1NC(=O)/C=C/CN(C)C [Neratinib],drug sensitivity score,[1],0.2
same,drug sensitivity score,[2],4.9
same,drug sensitivity score,[3],3.2
same,drug sensitivity score,[4],0
same,drug sensitivity score,[5],3.2
same,drug sensitivity score,[6],1
same,drug sensitivity score,[7],0.3
same,drug sensitivity score,[8],0.5
C[C@@H](C(=O)O)c1ccc(-c2ccccc2)c(F)c1 [Tarenflurbil],drug sensitivity score,[1],0
same,drug sensitivity score,[2],0
same,drug sensitivity score,[3],0
same,drug sensitivity score,[4],0
same,drug sensitivity score,[5],0
same,drug sensitivity score,[6],0
same,drug sensitivity score,[7],0
same,drug sensitivity score,[8],0
C[C@H]1O[C@@H](O[C@H]2[C@@H](O)C[C@H](O[C@H]3[C@@H](O)C[C@H](O[C@H]4CC[C@@]5(C)[C@H](CC[C@@H]6[C@@H]5C[C@@H](O)[C@]5(C)[C@@H](C7=CC(=O)OC7)CC[C@]65O)C4)O[C@@H]3C)O[C@@H]2C)C[C@H](O)[C@@H]1O [Digoxin],drug sensitivity score,[1],5.9
same,drug sensitivity score,[2],10.6
same,drug sensitivity score,[3],13.3
same,drug sensitivity score,[4],6.6
same,drug sensitivity score,[5],12.9
same,drug sensitivity score,[6],3.3
same,drug sensitivity score,[7],9.7
same,drug sensitivity score,[8],10.4
CCCOc1ccn2c(C(C)=O)cc(-c3ccccc3S(C)(=O)=O)c2c1 [GSK2801],drug sensitivity score,[1],0
same,drug sensitivity score,[2],0
same,drug sensitivity score,[3],0
same,drug sensitivity score,[4],0
same,drug sensitivity score,[5],0.7
same,drug sensitivity score,[6],0.1
same,drug sensitivity score,[7],0
same,drug sensitivity score,[8],0
Cc1sc2c(c1C)C(c1ccc(Cl)cc1)=N[C@@H](CC(=O)Nc1ccc(O)cc1)c1nnc(C)n1-2 [Birabresib],drug sensitivity score,[1],0
same,drug sensitivity score,[2],12.1
same,drug sensitivity score,[3],7.6
same,drug sensitivity score,[4],2.9
same,drug sensitivity score,[5],4.5
same,drug sensitivity score,[6],6.2
same,drug sensitivity score,[7],6.7
same,drug sensitivity score,[8],0
CC(=O)OC[C@H]1O[C@@H]([S-])[C@H](OC(C)=O)[C@@H](OC(C)=O)[C@@H]1OC(C)=O.CCP(CC)CC.[Au+] [Auranofin],drug sensitivity score,[1],3.7
same,drug sensitivity score,[2],9.5
same,drug sensitivity score,[3],9
same,drug sensitivity score,[4],3.2
same,drug sensitivity score,[5],12.4
same,drug sensitivity score,[6],0.5
same,drug sensitivity score,[7],2.6
same,drug sensitivity score,[8],5.6
CN(c1ncccc1CNc1nc(Nc2ccc3c(c2)CC(=O)N3)ncc1C(F)(F)F)S(C)(=O)=O,drug sensitivity score,[1],0
same,drug sensitivity score,[2],9.1
same,drug sensitivity score,[3],7.1
same,drug sensitivity score,[4],4.7
same,drug sensitivity score,[5],6.4
same,drug sensitivity score,[6],3
same,drug sensitivity score,[7],5.2
same,drug sensitivity score,[8],5.3
COC(=O)c1ccc2c(c1)[nH]c1ncnc(NCCCN3CCCCC3)c12 [UM729],drug sensitivity score,[1],0
same,drug sensitivity score,[2],0
same,drug sensitivity score,[3],2.5
same,drug sensitivity score,[4],0.6
same,drug sensitivity score,[5],0
same,drug sensitivity score,[6],1
same,drug sensitivity score,[7],0
same,drug sensitivity score,[8],0
C[C@]12CC[C@H](O)CC1=CC[C@@H]1[C@@H]2CC[C@]2(C)C(c3cccnc3)=CC[C@@H]12 [Abiraterone],drug sensitivity score,[1],0
same,drug sensitivity score,[2],0
same,drug sensitivity score,[3],0
same,drug sensitivity score,[4],0
same,drug sensitivity score,[5],0
same,drug sensitivity score,[6],0
same,drug sensitivity score,[7],0
same,drug sensitivity score,[8],0
O=C(Nc1cccnc1)N1CCC(Cc2cccc(Oc3ccc(C(F)(F)F)cn3)c2)CC1 [PF-3845],drug sensitivity score,[1],0
same,drug sensitivity score,[2],1
same,drug sensitivity score,[3],0.1
same,drug sensitivity score,[4],0
same,drug sensitivity score,[5],3.8
same,drug sensitivity score,[6],0
same,drug sensitivity score,[7],0
same,drug sensitivity score,[8],4
CO[C@H]1C(=O)[C@]2(C)[C@@H](OC)C[C@H]3OC[C@@]3(OC(C)=O)[C@H]2[C@H](OC(=O)c2ccccc2)[C@]2(O)C[C@H](OC(=O)[C@H](O)[C@@H](NC(=O)OC(C)(C)C)c3ccccc3)C(C)=C1C2(C)C [Cabazitaxel],drug sensitivity score,[1],14.8
same,drug sensitivity score,[2],23.2
same,drug sensitivity score,[3],8.2
same,drug sensitivity score,[4],9.1
same,drug sensitivity score,[5],24.3
same,drug sensitivity score,[6],1.6
same,drug sensitivity score,[7],12.1
same,drug sensitivity score,[8],20.3
CNC(=O)c1cccc(-c2ccc3c(N4CCOC[C@@H]4C)nc(N4CCOC[C@@H]4C)nc3n2)c1 [Vistusertib],drug sensitivity score,[1],8.8
same,drug sensitivity score,[2],12.5
same,drug sensitivity score,[3],11.6
same,drug sensitivity score,[4],12.1
same,drug sensitivity score,[5],14
same,drug sensitivity score,[6],11
same,drug sensitivity score,[7],12.6
same,drug sensitivity score,[8],8.5
C[C@]12C=CC(=O)C=C1CC[C@@H]1[C@@H]2[C@@H](O)C[C@@]2(C)[C@H]1CC[C@]2(O)C(=O)CO [Prednisolone],drug sensitivity score,[1],0
same,drug sensitivity score,[2],0
same,drug sensitivity score,[3],2.8
same,drug sensitivity score,[4],0
same,drug sensitivity score,[5],0
same,drug sensitivity score,[6],0.3
same,drug sensitivity score,[7],0
same,drug sensitivity score,[8],0
Cn1ncc(Cl)c1-c1cc(C(=O)N[C@H](CN)Cc2cccc(F)c2)sc1Cl [Afuresertib],drug sensitivity score,[1],0
same,drug sensitivity score,[2],1.5
same,drug sensitivity score,[3],1.9
same,drug sensitivity score,[4],1
same,drug sensitivity score,[5],0
same,drug sensitivity score,[6],1.5
same,drug sensitivity score,[7],2.3
same,drug sensitivity score,[8],0.5
OC[C@H]1O[C@@H](n2cnc3c2N=CNC[C@H]3O)C[C@@H]1O [Pentostatin],drug sensitivity score,[1],0
same,drug sensitivity score,[2],0
same,drug sensitivity score,[3],1.8
same,drug sensitivity score,[4],0
same,drug sensitivity score,[5],0
same,drug sensitivity score,[6],0
same,drug sensitivity score,[7],0
same,drug sensitivity score,[8],0
C=CC[C@@H]1/C=C(\C)C[C@H](C)C[C@H](OC)[C@H]2O[C@@](O)(C(=O)C(=O)N3CCCC[C@H]3C(=O)O[C@H](/C(C)=C/[C@@H]3CC[C@@H](O)[C@H](OC)C3)[C@H](C)[C@@H](O)CC1=O)[C@H](C)C[C@@H]2OC [Tacrolimus],drug sensitivity score,[1],0
same,drug sensitivity score,[2],0
same,drug sensitivity score,[3],1.3
same,drug sensitivity score,[4],0
same,drug sensitivity score,[5],0.6
same,drug sensitivity score,[6],1.9
same,drug sensitivity score,[7],0.1
same,drug sensitivity score,[8],0.1
C=CC(=O)N1CCC[C@@H](n2nc(-c3ccc(Oc4ccccc4)cc3)c3c(N)ncnc32)C1 [Ibrutinib],drug sensitivity score,[1],0
same,drug sensitivity score,[2],0
same,drug sensitivity score,[3],0
same,drug sensitivity score,[4],0
same,drug sensitivity score,[5],2.8
same,drug sensitivity score,[6],0.2
same,drug sensitivity score,[7],0
same,drug sensitivity score,[8],0
